# Laboratory results published in ChEMBL document CHEMBL1201862, “PubChem BioAssay data set” (2004).
#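 Grown in 96-well plates, cells were treated for 48 hours with each compound at five concentrations. Insufficient inhibition: endpoint recorded as highest concentration tested. At the GI50, growth is halved.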 Calls of active or inactive are those of the source. No stated cut-off is given here; in the data, active = GI50 up to about 1.1 µM and inactive = higher.
# Columns and labels:
# Test in all cases: NCI tumour cell line growth inhibition, 48 h
# A498 = tested on: A498
# ACHN = tested on: ACHN
# CAKI-1 = tested on: CAKI-1
# HOP-92 = tested on: HOP-92
# Hs-578T = tested on: Hs-578T
# KM12 = tested on: KM12
# M14 = tested on: M14
# MCF7 = tested on: MCF7
# MDA-MB-231 = tested on: MDA-MB-231
# NCI-H23 = tested on: NCI-H23
# NCI-H522 = tested on: NCI-H522
# RPMI-8226 = tested on: RPMI-8226
# SN12C = tested on: SN12C
# SNB-19 = tested on: SNB-19
# T47D = tested on: T47D
# TK-10 = tested on: TK-10
# UO-31 = tested on: UO-31
# RXF 393 = tested on: RXF 393
# SK-MEL-28 = tested on: SK-MEL-28
# SNB-75 = tested on: SNB-75
Structure (SMILES),GI50 (A498),GI50 (ACHN),GI50 (CAKI-1),GI50 (HOP-92),GI50 (Hs-578T),GI50 (KM12),GI50 (M14),GI50 (MCF7),GI50 (MDA-MB-231),GI50 (NCI-H23),GI50 (NCI-H522),GI50 (RPMI-8226),GI50 (SN12C),GI50 (SNB-19),GI50 (T47D),GI50 (TK-10),GI50 (UO-31),GI50 (RXF 393),GI50 (SK-MEL-28),GI50 (SNB-75)
COc1cc2c(c(OC)c1O)-c1ccc(OC)c(=O)cc1[C@@H](NC(=O)C(F)(F)F)CC2,0.327 µM (active),0.745 µM (active),0.405 µM (active),0.111 µM (active),0.019 µM (active),0.0482 µM (active),0.0634 µM (active),0.0441 µM (active),0.0413 µM (active),0.0809 µM (active),0.0235 µM (active),0.0252 µM (active),2.52 µM (inactive),0.0975 µM (active),> 100 µM (inactive),> 100 µM (inactive),6.87 µM (inactive),,,
O=C1C(Sc2ccc3ccccc3c2)=C(Sc2ccc3ccccc3c2)C(=O)c2ccccc21,14.8 µM (inactive),4.55 µM (inactive),,6.64 µM (inactive),8.57 µM (inactive),,11.5 µM (inactive),11.2 µM (inactive),4.59 µM (inactive),5.13 µM (inactive),1.97 µM (inactive),,12.1 µM (inactive),8.09 µM (inactive),1.76 µM (inactive),,3.95 µM (inactive),14.8 µM (inactive),15.2 µM (inactive),14 µM (inactive)
CC(C)(C)c1cc(C=C(C#N)C#N)cc(C(C)(C)C)c1O [TYRPHOSTIN A9],0.277 µM (active),0.356 µM (active),0.738 µM (active),0.0527 µM (active),0.384 µM (active),0.395 µM (active),0.944 µM (active),0.391 µM (active),1.56 µM (inactive),0.809 µM (active),0.126 µM (active),,0.191 µM (active),0.392 µM (active),0.135 µM (active),2.05 µM (inactive),0.315 µM (active),2.55 µM (inactive),3.2 µM (inactive),0.857 µM (active)
O=C(CNc1ccc(Cl)cc1Cl)Nn1c(-c2ccccc2)nc2ccccc2c1=O,> 10 µM (inactive),17.6 µM (inactive),,4.33 µM (inactive),23.9 µM (inactive),> 10 µM (inactive),13.7 µM (inactive),13.4 µM (inactive),14.8 µM (inactive),12.6 µM (inactive),12 µM (inactive),21.3 µM (inactive),16.1 µM (inactive),18.5 µM (inactive),14.6 µM (inactive),19.5 µM (inactive),22.4 µM (inactive),18.9 µM (inactive),21.1 µM (inactive),15.3 µM (inactive)
COC(=O)NC1C(C)OC(OC2C/C=C(/C)C3C=CC4C(OC5CC(OC6CC(OC7CC(O)C(O)C(C)O7)C(OC7CC(O)C(OC)C(C)O7)C(C)O6)C(O)C(C)O5)C(C)CC(C)C4C3(C)C(=O)C3=C(O)C4(CC(C)C(CO)=CC4/C=C\2C)OC3=O)CC1(C)[N+](=O)[O-] (configuration not stated),25.6 µM (inactive),11.6 µM (inactive),16 µM (inactive),6.24 µM (inactive),6.85 µM (inactive),6.7 µM (inactive),17.1 µM (inactive),11.7 µM (inactive),12 µM (inactive),12.9 µM (inactive),2.99 µM (inactive),1.6 µM (inactive),11.7 µM (inactive),21.2 µM (inactive),7.78 µM (inactive),16.6 µM (inactive),22.9 µM (inactive),,8.34 µM (inactive),2.47 µM (inactive)
COc1cccc(C2c3cc4c(cc3OC(C)(N3CCCC3)C2C)OCO4)c1 (configuration not stated),14 µM (inactive),17.6 µM (inactive),17.1 µM (inactive),10.2 µM (inactive),3.07 µM (inactive),4 µM (inactive),4.12 µM (inactive),9.51 µM (inactive),7.78 µM (inactive),20.5 µM (inactive),2.37 µM (inactive),,17.2 µM (inactive),21.9 µM (inactive),11.2 µM (inactive),10.9 µM (inactive),13.1 µM (inactive),14 µM (inactive),20.3 µM (inactive),3.18 µM (inactive)
C=CCN1C(=O)C[C@H](Cc2ccccc2)NC(=O)C[C@H](Cc2ccccc2)N(CC=C)C(=O)C[C@H](Cc2ccccc2)NC(=O)C[C@@H]1Cc1ccccc1,7.01 µM (inactive),,5.15 µM (inactive),4.48 µM (inactive),> 100 µM (inactive),26 µM (inactive),8.09 µM (inactive),4.04 µM (inactive),8.79 µM (inactive),> 100 µM (inactive),,2.76 µM (inactive),5.7 µM (inactive),> 100 µM (inactive),6.3 µM (inactive),8.79 µM (inactive),7.03 µM (inactive),7.14 µM (inactive),61.9 µM (inactive),3.92 µM (inactive)
COC1CC(OC2C(C)OC(OC3C(C)OC(OC4C(C)OC(O[C@H]5CC[C@@]6(C)C(=CC[C@]7(O)[C@@H]6C[C@@H](O)[C@@]6(C)[C@]7(O)CC[C@@]6(O)C(C)=O)C5)CC4OC)CC3OC)CC2OC)OC(C)C1O (some centres not stated),,> 12.5 µM (inactive),> 12.5 µM (inactive),> 12.5 µM (inactive),> 12.5 µM (inactive),> 12.5 µM (inactive),> 12.5 µM (inactive),> 12.5 µM (inactive),> 12.5 µM (inactive),> 12.5 µM (inactive),> 12.5 µM (inactive),> 12.5 µM (inactive),> 12.5 µM (inactive),> 12.5 µM (inactive),> 12.5 µM (inactive),> 12.5 µM (inactive),12.4 µM (inactive),,> 12.5 µM (inactive),> 12.5 µM (inactive)
Nc1nc(N)c2c3c(cnc2n1)CC(c1ccccc1)CC3 (configuration not stated),24.8 µM (inactive),5 µM (inactive),28.1 µM (inactive),,30.2 µM (inactive),23.9 µM (inactive),3.24 µM (inactive),11.7 µM (inactive),21.4 µM (inactive),,14.4 µM (inactive),> 100 µM (inactive),17.3 µM (inactive),13.6 µM (inactive),23.9 µM (inactive),21.7 µM (inactive),,17.7 µM (inactive),35.6 µM (inactive),16.4 µM (inactive)
COc1cc2c(cc1OC)C(=O)N(c1ccc(O)cc1)C2=O,> 100 µM (inactive),> 100 µM (inactive),> 100 µM (inactive),> 100 µM (inactive),> 100 µM (inactive),,> 100 µM (inactive),< 0.01 µM (active),> 100 µM (inactive),> 100 µM (inactive),> 100 µM (inactive),> 100 µM (inactive),> 100 µM (inactive),> 100 µM (inactive),> 100 µM (inactive),> 100 µM (inactive),,> 100 µM (inactive),> 100 µM (inactive),
N#CCCN(C(=O)Nc1ccc(NC(=O)N(CCC#N)c2ccccc2)cc1)c1ccccc1,> 100 µM (inactive),> 100 µM (inactive),> 100 µM (inactive),,> 100 µM (inactive),> 100 µM (inactive),> 100 µM (inactive),> 100 µM (inactive),> 100 µM (inactive),> 100 µM (inactive),> 100 µM (inactive),> 100 µM (inactive),> 100 µM (inactive),> 100 µM (inactive),> 100 µM (inactive),,> 100 µM (inactive),92.7 µM (inactive),> 100 µM (inactive),> 100 µM (inactive)
